According to US6943034B1, “Combinatorial strategies for polymer synthesis” (Affymetrix, Inc., priority 1991, dated 2005):
Where no end group is shown, it is not given here. [ ]: non-standard residue; d: D form.

Tests used:
Herz antibody 3E7 = assay: staining of substrate-bound peptide array with FITC-labelled antibodies, fluorescence intensity; type: binding; conditions: for overall intensity ratios YGGFL:YpGFL:pGGFL:ppGFL: fluorescence intensity of all sites on the slide after staining with FITC-labelled Herz antibody 3E7, ratio relative to ppGFL = 1.0; for fluorescence intensity of peptide sites (FIG. 19): slide stained with FITC-labelled Herz antibody 3E7, result in words
From the text: The system was used to synthesize four distinct peptides: YGGFL (SEQ ID NO:1), YpGFL (SEQ ID NO:2), pGGFL (SEQ ID NO:3), and ppGFL (SEQ ID NO:6) (the abbreviations are included in Stryer, Biochemistry, Third Ed. (1988), previously incorporated herein by reference; lower case letters indicate D-optical isomers and upper case letters indicate L-optical isomers). An entire glass substrate was derivatized with TBOC-protected aminopropyltriethoxysilane, deprotected with TFA, coated with FMOC-protected caproic acid (a linker), deprotected with piperidine, and coated with FMOC-protected Glycine-Phenylalanine-Leucine (GFL).
This FMOC-GFL-coated slide was sealed to the channel block, and all 10 grooves were deprotected with piperdine in DMF. After washing the grooves, FMOC Glycine (G) was injected in the odd grooves, and FMOC d-Proline (p) was injected in the even grooves. After a two-hour coupling time, using standard coupling chemistry, all grooves were washed with DMF. The grooves were vacuum dried, the block removed and rotated 90 degrees. After resealing, all grooves were deprotected with piperdine in DMF and washed. FMOC Tyrosine (Y) was injected in the odd grooves, and FMOC p in the even grooves. After coupling the grooves were washed and vacuum dried. Accordingly, 25 regions of each of the compounds YGGFL (SEQ ID NO:1), YpGFL (SEQ ID NO:2), pGGFL (SEQ ID NO:3), and ppGFL (SEQ ID NO:6) were synthesized on the substrate. The substrate was removed and stained with FITC-labelled antibodies (Herz antibody 3E7).

[1] = system: complementary base sequence 5′GCGTCGGC-F (SEQ ID NO:5); assay: Channel Matrix Hybridization Assay; type: binding; conditions: 10 nM target, 15° C., one hour; scanned in 6× SSPE buffer; result in words
From the text: A center region of a two by three inch slide was derivatized with bis(2-Hydroxyethyl) aminopropyltriethoxy silane. Six nucleosides were then coupled to the entire reaction region using a synthesis process consisting of deprotection, coupling, and oxidation steps for each monomer applied. These first six nucleosides were coupled in a reaction region defined by a 0.84 inch diameter circular well in an aluminum template clamped to the two by three inch slide.
The seventh and eighth monomers were applied to the substrate by flowing monomer solutions through 100 micron channels in an etched silicon channel block (employed in Example C above). The seventh base was coupled along the long axis (vertical) of the two-inch by three-inch slide, and the eighth base perpendicular to the seventh, along the short axis (horizontal) of the slide. This defined an active matrix region of 1.28 by 1.28 cm having a density of 2,500 reaction regions per square centimeter.
The complete octamer synthesized at the channel intersections formed by the seventh and eighth coupling steps had the following sequence: […]
After completion of the synthesis process, cleavage of exocyclic amines was performed by immersion of the reaction region in concentrated ammonium hydroxide. […] Finally, the reaction region was then scanned using a laser fluorescence detection system while immersed in the buffer.

In the case of pGGFL ([dP]GGFL; also: substrate-bound), the “overall intensity ratios YGGFL:YpGFL:pGGFL:ppGFL” value (Herz antibody 3E7) is reported as 1.1 and the “fluorescence intensity of peptide sites (FIG. 19)” value (“fluorescence intensity” for short) (Herz antibody 3E7) is reported as “near background levels”.
With “ppGFL ([dP][dP]GFL; also: substrate-bound)” the “overall intensity ratios YGGFL:YpGFL:pGGFL:ppGFL” value (Herz antibody 3E7) was 1.0 and the “fluorescence intensity” value (Herz antibody 3E7) was “near background levels”.
In the case of YpGFL (Y[dP]GFL; also: substrate-bound), the “overall intensity ratios YGGFL:YpGFL:pGGFL:ppGFL” value (Herz antibody 3E7) is reported as 1.5.
“Substrate—(3′)CGCAGCCG(5′) [full octamer]” was tested, and the “brightness (fluorescence) indicating hybridization with fluoresceinated target chain (FIG. 21)” value [1] was “brightest regions”.
For YGGFL, the “overall intensity ratios YGGFL:YpGFL:pGGFL:ppGFL” value (Herz antibody 3E7) was 1.7 and the “fluorescence intensity” value (Herz antibody 3E7) was “most intense”.
